The source made the active and inactive calls. No rule for the calls is given here.

The data set has as its system rodent carcinogenicity bioassays, tumor incidence. The data set is described as follows: CCRIS carcinogenicity studies. Particulars: Dose: 0, Dose: 0. In short, it runs like this:
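Archive of carcinogenicity, mutagenicity, tumor promotion and tumor inhibition results drawn from journals, NCI reports and other sources, expert-reviewed; covers 1985-2011 and is no longer updated.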

As for `COc1cc(OC)nc(NC(=O)NS(=O)(=O)c2c(Cl)nc3ccccn23)n1`, the carcinogen call is “inactive; negative” (Species: Mouse, Strain/Sex: CD-1/Female (50/Group), Route: Oral, 86.8, 870.0, 10,303.5 mg/kg/day of 99.6-99.8% imazosulfuron in diet for 18 mo, study duration 18 mo, 86.8, 870.0, 10,303.5 mg/kg/day of 99.6-99.8% imazosulfuron in diet for 18 mo, study duration 18 mo); “inactive; negative” (Species: Mouse, Strain/Sex: CD-1/Male (50/Group), Route: Oral, 72.7, 741.3, 7848.1 mg/kg/day of 99.6-99.8% imazosulfuron in diet for 18 mo, study duration 18 mo, 72.7, 741.3, 7848.1 mg/kg/day of 99.6-99.8% imazosulfuron in diet for 18 mo, study duration 18 mo); “inactive; negative” (Species: Rat, Strain/Sex: CD (Sprague-Dawley derived)/Female (50/Group), Route: Oral, 12.94, 132.46, 1554.35 mg/kg/day of 99.6-99.8% imazosulfuron in diet for 24 mo, study duration 24 mo, 12.94, 132.46, 1554.35 mg/kg/day of 99.6-99.8% imazosulfuron in diet for 24 mo, study duration 24 mo); “inactive; negative” (Species: Rat, Strain/Sex: CD (Sprague-Dawley derived)/Male (50/Group), Route: Oral, 10.39, 106.10, 1123.99 mg/kg/day of 99.6-99.8% imazosulfuron in diet for 24 mo, study duration 24 mo, 10.39, 106.10, 1123.99 mg/kg/day of 99.6-99.8% imazosulfuron in diet for 24 mo, study duration 24 mo).
On to `COc1c(Cl)c(Cl)c(Cl)c(Cl)c1Cl`, for which the carcinogen call is, setting by setting: (Species: MOUSE, Strain/Sex: B6C3F1/FEMALE, Route: GAVAGE, 20, 40 MG/KG IN CORN OIL 5 D/WK FOR 104 WK (STUDY DURATION: 105 WK), 20, 40 MG/KG IN CORN OIL 5 D/WK FOR 104 WK (STUDY DURATION: 105 WK)) “inactive; negative”; (Species: MOUSE, Strain/Sex: B6C3F1/MALE, Route: GAVAGE, 20, 40 MG/KG IN CORN OIL 5 D/WK FOR 104 WK (STUDY DURATION: 105 WK), 20, 40 MG/KG IN CORN OIL 5 D/WK FOR 104 WK (STUDY DURATION: 105 WK), Tumor Site: Type of Lesion: ADRENAL MEDULLA: BENIGN PHEOCHROMOCYTOMA, LIVER: HEMANGIOSARCOMA) “active; positive”; (Species: RAT, Strain/Sex: F344/FEMALE, Route: GAVAGE, 20, 40 MG/KG IN CORN OIL 5 D/WK FOR 103 WK (STUDY DURATION: 104 WK), 20, 40 MG/KG IN CORN OIL 5 D/WK FOR 103 WK (STUDY DURATION: 104 WK), Tumor Site: Type of Lesion: ADRENAL MEDULLA: BENIGN PHEOCHROMOCYTOMA) “equivocal”; (Species: RAT, Strain/Sex: F344/MALE, Route: GAVAGE, 10, 20, 40 MG/KG IN CORN OIL 5 D/WK FOR 103 WK (STUDY DURATION: 104 WK), 10, 20, 40 MG/KG IN CORN OIL 5 D/WK FOR 103 WK (STUDY DURATION: 104 WK), Tumor Site: Type of Lesion: ADRENAL MEDULLA: BENIGN PHEOCHROMOCYTOMA) “active; positive”.
On to `O=S(=O)(O)c1cc(S(=O)(=O)O)c2c(N=Nc3ccccc3)c(O)ccc2c1`, for which the carcinogen call is, setting by setting: (Species: MOUSE, Strain/Sex: B6C3F1/FEMALE, Route: ORAL, 3000, 6000 PPM IN DIET FOR 103 WK (STUDY DURATION: 104 WK), 3000, 6000 PPM IN DIET FOR 103 WK (STUDY DURATION: 104 WK)) “inactive; negative”; (Species: MOUSE, Strain/Sex: B6C3F1/MALE, Route: ORAL, 3000, 6000 PPM IN DIET FOR 103 WK (STUDY DURATION: 104 WK), 3000, 6000 PPM IN DIET FOR 103 WK (STUDY DURATION: 104 WK)) “inactive; negative”; (Species: RAT, Strain/Sex: F344/FEMALE, Route: ORAL, 1000, 3000 PPM IN DIET FOR 103 WK (STUDY DURATION: 104 WK), 1000, 3000 PPM IN DIET FOR 103 WK (STUDY DURATION: 104 WK)) “inactive; negative”; (Species: RAT, Strain/Sex: F344/MALE, Route: ORAL, 1000, 3000 PPM IN DIET FOR 103 WK (STUDY DURATION: 104 WK), 1000, 3000 PPM IN DIET FOR 103 WK (STUDY DURATION: 104 WK)) “inactive; negative”.

The record behind these values is PubChem BioAssay AID1259411 (Chemical Carcinogenesis Research Information System (CCRIS), 2018).
